Data from ChEMBL document CHEMBL5604063, “ASAP - DENV-2 NS2B-NS3 protease fluorescence dose response” (2024).
Where “and” joins values, the source holds several entries; their conditions need not be identical. Equal values may be shown once.

Key:
Genome polyprotein [1] = biological target: T1, Genome polyprotein (dengue virus type 2, UniProt P29990); format: functional, Thailand/16681/1984
Genome polyprotein [2] = biological target: T1, Genome polyprotein; format: functional, Thailand/16681/1984; remark: listed apart in the source

T1 sequence (P29990 1346-1475 limits assumed): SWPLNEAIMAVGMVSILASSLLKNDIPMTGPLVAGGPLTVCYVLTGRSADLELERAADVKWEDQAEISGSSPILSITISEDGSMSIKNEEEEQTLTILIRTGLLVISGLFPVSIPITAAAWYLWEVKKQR
T1 sequence (P29990 1476-2093 limits assumed): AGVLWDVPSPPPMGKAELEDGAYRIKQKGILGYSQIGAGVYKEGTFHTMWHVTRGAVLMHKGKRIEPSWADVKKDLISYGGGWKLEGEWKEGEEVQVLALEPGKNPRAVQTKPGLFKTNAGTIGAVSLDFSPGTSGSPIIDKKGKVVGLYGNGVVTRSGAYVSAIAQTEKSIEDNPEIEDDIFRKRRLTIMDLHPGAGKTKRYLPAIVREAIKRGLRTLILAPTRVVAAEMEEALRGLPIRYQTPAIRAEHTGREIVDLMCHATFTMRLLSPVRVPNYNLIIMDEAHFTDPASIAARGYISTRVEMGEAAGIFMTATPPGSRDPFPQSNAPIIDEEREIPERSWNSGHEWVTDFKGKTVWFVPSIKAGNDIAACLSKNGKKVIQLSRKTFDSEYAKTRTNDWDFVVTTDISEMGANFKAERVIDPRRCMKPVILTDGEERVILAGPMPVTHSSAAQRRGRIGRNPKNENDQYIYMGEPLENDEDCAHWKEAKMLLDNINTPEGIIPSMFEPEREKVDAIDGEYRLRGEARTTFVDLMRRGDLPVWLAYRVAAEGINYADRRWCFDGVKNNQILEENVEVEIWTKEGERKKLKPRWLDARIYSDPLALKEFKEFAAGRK

| SMILES | IC50 (Genome polyprotein [1]) | IC50 (Genome polyprotein [2]) |
| --- | --- | --- |
| O=C1CCc2c(cc(Cl)cc2-c2ccc3[nH]c(C(=O)O)cc3c2)N1 | > 99.5 µM | > 100 µM |
| O=C(O)c1cc2cc(-c3cc(Cl)cc4c3CCNC4=O)ccc2[nH]1 | > 99.5 µM | > 100 µM |
| Cc1[nH]c2ccc(Cl)cc2c1Cc1ccc(-c2nnn[nH]2)cc1 | 42.6 µM | 21 µM |
| Cn1ncc2c(C(=O)Nc3ccc4c(c3)CNC4)cc(Br)cc21 | > 99.5 µM | > 100 µM |
| CNC(=O)[C@H](Nc1cc(CNC(=O)OC(C)(C)C)cc(C(=O)O)c1)c1cc(Cl)cc(C2CC2)c1 | > 99.5 µM | > 100 µM |
| O=C(O)[C@H]1C[C@H](n2ccc(Cc3c[nH]c4ccc(Cl)cc34)n2)C1 | > 99.5 µM | > 100 µM |
| O=C(Nc1cccc([C@@H]2C[C@H]2C(=O)O)c1)c1cc(Cl)cc2[nH]ncc12 | > 99.5 µM | > 100 µM |
| C=CC[C@H](Nc1cccc(C2(C(=O)O)CCC2)c1)c1cc(Cl)cc(NC(=O)OCc2ccccc2)c1 | 16.7 µM | 17.2 µM |
| c1ccc2c(Cc3ccc(-c4nnn[nH]4)cc3)c[nH]c2c1 | > 99.5 µM | > 100 µM |
| N#Cc1cc(-c2ccc3[nH]c(C(=O)O)cc3c2)cc(N2CCCC2)c1 | 63.4 µM | > 100 µM |
| O=C(O)c1ccc(Cc2c[nH]c3ccc(Cl)cc23)cc1 | > 99.5 µM | > 100 µM |
| N#C[C@]1(Nc2cccc(-c3nn[nH]n3)c2)C(=O)Nc2ccc(Cl)cc21 | > 99.5 µM | > 100 µM |
| C=CC[C@H](Nc1cncc(Cl)c1)c1cccc(-c2nn[nH]n2)c1 | > 99.5 µM | > 100 µM |
| C=CC[C@H](Nc1cccc(Cl)c1)c1cccc(-c2nn[nH]n2)c1 | > 99.5 µM | 41.5 µM and 38.9 µM |
| O=C(Nc1cc(Cl)cc([C@H](Nc2cccc(-c3nn[nH]n3)c2)C(=O)N[C@H]2CCOC2)c1)OCc1ccccc1 | 40.3 µM | 22.9 µM |
| CCCn1cc(-c2cc(Cl)cc(NC(=O)OCc3ccccc3)c2)c(C(=O)O)n1 | > 99.5 µM | > 100 µM |
| O=C(O)CCCn1cnc(-c2cc(Cl)cc(NC(=O)OCc3ccccc3)c2)n1 | > 99.5 µM | > 100 µM |
| N#C[C@H](Nc1cncc(-c2nn[nH]n2)c1)c1cc(Cl)cc(NC(=O)OCc2ccccc2)c1 | 18.7 µM | 11 µM and 10.8 µM |
| N#C[C@H](c1cc(Cl)cc(C2CC2)c1)N1c2cnccc2C[C@H]1C(=O)O | > 99.5 µM | > 100 µM |
| NCc1cc(CCc2cc(Cl)cc(NC(=O)OCc3ccccc3)c2)cc(C(=O)O)c1 | > 99.5 µM | > 100 µM |
| N#C[C@H](Nc1cccc(-c2nn[nH]n2)c1)c1cc(Cl)cc2[nH]ncc12 | > 99.5 µM | 88.3 µM |
| Clc1cc([C@@H]2C[C@H]2c2cccc(-c3nn[nH]n3)c2)c2cn[nH]c2c1 | 66.2 µM | 20.4 µM and 23.8 µM |
| O=C(Nc1cc(Cl)cc([C@H]2[C@H](CO)[C@@H]2c2cccc(-c3nn[nH]n3)c2)c1)OCc1ccccc1 | 25.2 µM | 11.3 µM and 13.5 µM |
| N#C[C@H](Nc1ccc2c(c1)CNC2)c1cc(Cl)cc2[nH]ncc12 | > 99.5 µM | > 100 µM |
| NCc1cc(Cl)cc(-c2ccc3[nH]c(C(=O)O)cc3c2)c1 | > 99.5 µM | > 100 µM |
| O=C(Nc1cc(Cl)cc([C@H](Nc2cccc(-c3nn[nH]n3)c2)C(=O)NC[C@H]2CCCO2)c1)OCc1ccccc1 | 33.7 µM | 17.6 µM |

| SMILES | IC50 (Genome polyprotein [1]) | IC50 (Genome polyprotein [2]) |
| --- | --- | --- |
| O=C(Nc1cc(Cl)cc([C@H]2C[C@@H]2c2cccc(-c3nnn[nH]3)c2)c1)OCc1ccccc1 | 16.2 µM | 19.1 µM |
| N#C[C@H](Nc1ccc(CCC(=O)O)cn1)c1cc(Cl)cc(C2CC2)c1 | > 99.5 µM | > 100 µM |
| N#C[C@H](Nc1cccn(CC(=O)O)c1=O)c1cc(Cl)cc(C2CC2)c1 | > 99.5 µM | > 100 µM |
| CNc1ncc(C(F)(F)F)cc1-c1ccc2[nH]c(C(=O)O)cc2c1 | > 99.5 µM | > 100 µM |
| O=C(Nc1cc(Cl)cc(C(=O)N2CCC(C(=O)O)CC2)c1)OCc1ccccc1 | > 99.5 µM | > 100 µM |
| O=C(Nc1cc(Cl)cc([C@H](Nc2cccc(-c3nn[nH]n3)c2)C(=O)NC2CCOCC2)c1)OCc1ccccc1 | 40.6 µM | 13.2 µM and 19.9 µM |
| O=C(Nc1cc(Cl)cc(-c2ccc3[nH]nc(C(=O)O)c3c2)c1)OCc1ccccc1 | 9.15 µM | 6.27 µM and 5 µM |
| O=C(O)c1cccc(CCc2cc(Cl)cc3[nH]ncc23)c1 | > 99.5 µM | > 100 µM |
| O=C(Nc1cc(Cl)cc(CNc2cccc(-c3nn[nH]n3)c2)c1)OCc1ccccc1 | 11.6 µM | 8.36 µM and 5.15 µM |
| OCC#C[C@H](Nc1ccc(-c2nnn[nH]2)cc1)c1cc(Cl)cc(C2CC2)c1 | > 99.5 µM | 40.8 µM |
| O=C(Nc1cc(Cl)cc(-c2ccc3cc(C(=O)O)[nH]c3c2)c1)OCc1ccccc1 | 7.42 µM | 7.4 µM and 4.18 µM |
| O=C(Nc1cc(Cl)cc(-c2cn(C3CCCC3)nc2C(=O)O)c1)OCc1ccccc1 | 34.3 µM | 42.7 µM and 31.7 µM |
| NCc1cc(NC(=O)c2cc(Cl)cc(NC(=O)OCc3ccccc3)c2)cc([C@@H]2C[C@H]2C(=O)O)c1 | > 99.5 µM | > 100 µM |
| NCc1ccc(C(=O)O)c(NC(=O)c2cc(Cl)cc(NC(=O)OCc3ccccc3)c2)c1 | > 99.5 µM | > 100 µM |
| CC(C)CNC(=O)[C@H](Nc1cccc(-c2nnn[nH]2)c1)c1cc(Cl)cc(C2CC2)c1 | 74.4 µM | 47.3 µM |
| CNC(=O)[C@H](Nc1cc(CN)cc(C(=O)O)c1)c1cc(Cl)cc(C2CC2)c1 | > 99.5 µM | > 100 µM |
| N#Cc1cc(CN)cc([C@H]2C[C@@H]2c2cc(Cl)cc(NC(=O)OCc3ccccc3)c2)c1 | > 99.5 µM | > 100 µM |
| NCc1cc(CC(=O)O)cc(NC(=O)c2cc(Cl)cc(NC(=O)OCc3ccccc3)c2)c1 | > 99.5 µM | > 100 µM |
| O=C(Nc1cc(Cl)cc(C(=O)N2CCC[C@H]2C(=O)O)c1)OCc1ccccc1 | > 99.5 µM | > 100 µM |
| O=C(Nc1cc(Cl)cc(C(=O)NC2(c3nnn[nH]3)CC2)c1)OCc1ccccc1 | > 99.5 µM | > 100 µM |
| C[C@@]1(c2cccc(CN)c2)C[C@H]1c1cc(Cl)cc(NC(=O)OCc2ccccc2)c1 | 17.5 µM | > 100 µM |
| COc1cc(-c2cc(Cl)cc(NC(=O)OCc3ccccc3)c2)c(OC)cc1CC(=O)O | 32.8 µM | 18.4 µM and 18.3 µM |
| O=C(Nc1cc(Cl)cc([C@H]2Nc3ccc(-c4nn[nH]n4)cc3[C@H]3OCCC[C@@H]23)c1)OCc1ccccc1 | > 99.5 µM | > 100 µM |
| Cc1c(C(=O)Nc2cccc(-c3nnn[nH]3)c2)cnn1-c1ccc(Cl)cc1 | > 99.5 µM | > 100 µM |
| OCC#C[C@H](Nc1ccc2c(c1)CNC2)c1cc(Cl)cc2[nH]ncc12 | 25.1 µM | 92.7 µM and 63.7 µM |
| CNC(=O)[C@H](Nc1cc(Cl)cc(C2CC2)c1)c1ccc(-c2nn[nH]n2)cc1 | > 99.5 µM | 99.6 µM and > 100 µM |

| SMILES | IC50 (Genome polyprotein [1]) | IC50 (Genome polyprotein [2]) |
| --- | --- | --- |
| NCc1cccc([C@H](C#CCO)Nc2cc(Cl)cc(NC(=O)OCc3ccccc3)c2)c1 | 64.9 µM | > 100 µM |
| O=C(Nc1cc(Cl)cc(-c2cnn3ccc(C(=O)O)cc23)c1)OCc1ccccc1 | > 99.5 µM | > 100 µM |
| Clc1cccc([C@H](C#Cc2ccccc2)Nc2cccc(-c3nn[nH]n3)c2)c1 | 7.71 µM | 6.31 µM and 4.12 µM |
| CNC(=O)[C@H](Nc1cccc(C2(C(=O)O)CCC2)c1)c1cc(Cl)cc(C2CC2)c1 | > 99.5 µM | > 100 µM |
| CNC(=O)c1cc(CN)cc([C@@H]2C[C@H]2c2cc(Cl)cc(NC(=O)OCc3ccccc3)c2)c1 | 29.6 µM | > 100 µM |
| COCCNC(=O)[C@H](Nc1cccc(-c2nn[nH]n2)c1)c1cc(Cl)cc(NC(=O)OCc2ccccc2)c1 | 59.8 µM | 28 µM |
| N#Cc1cc(Cl)cc(-c2ccc3[nH]c(C(=O)O)cc3c2)c1 | > 99.5 µM | > 100 µM and 82.1 µM |
| O=C(O)C[C@H]1CCCN1C(=O)c1cc(Cl)cc(NC(=O)OCc2ccccc2)c1 | > 99.5 µM | > 100 µM |
| C[C@@]1(c2cc(Cl)cc(NC(=O)OCc3ccccc3)c2)C[C@H]1c1cccc(CN)c1 | 88.1 µM | > 100 µM |
| O=C(O)c1cc2cc(-c3cc(Cl)cc(C4CC4)c3)ccc2[nH]1 | 15.7 µM | 11.4 µM and 11 µM |
| CNC(=O)[C@H](Nc1cncc(C(=O)O)c1)c1cc(Cl)cc(C2CC2)c1 | > 99.5 µM | > 100 µM |
| O=C(Nc1cc(Cl)cc(-c2cccc3c(C(=O)O)cccc23)c1)OCc1ccccc1 | 9.78 µM | 7.51 µM |
| NCc1cc(Br)cc([C@H]2C[C@@H]2c2cc(Cl)cc(NC(=O)OCc3ccccc3)c2)c1 | 16.1 µM | 33.5 µM |
| C[C@H](C(=O)O)N(C)C(=O)c1cc(Cl)cc(NC(=O)OCc2ccccc2)c1 | > 99.5 µM | > 100 µM |
| C[C@](O)(Cc1cc(Cl)cc(NC(=O)OCc2ccccc2)c1)c1cccc(CN)c1 | > 99.5 µM | > 100 µM |
| CN(C)CCNC(=O)[C@H](Nc1cccc(-c2nn[nH]n2)c1)c1cc(Cl)cc(NC(=O)OCc2ccccc2)c1 | 97.3 µM | 47.2 µM and 67.4 µM and > 100 µM |
| CNC(=O)[C@H](Nc1cccc(-c2nnn[nH]2)c1)c1cc(Cl)cc(C2CC2)c1 | > 99.5 µM | > 100 µM |
| CCc1cc(Br)cc2c(Cc3ccc(-c4nnn[nH]4)cc3)c[nH]c12 | 12 µM | 8.03 µM and 9.26 µM |
| CN(C)C(=O)Nc1cccc([C@@H]2C[C@H]2c2cc(Cl)cc(NC(=O)OCc3ccccc3)c2)c1 | > 99.5 µM | > 100 µM |
| CNC(=O)[C@H](Nc1cc(CN)cc(C(=O)O)c1)c1cc(Cl)cc(NC(=O)OCc2ccccc2)c1 | > 99.5 µM | > 100 µM |
| CC(C)[C@H](CC(=O)O)NC(=O)c1cc(Cl)cc(NC(=O)OCc2ccccc2)c1 | > 99.5 µM | > 100 µM |
| N#C[C@H](Nc1ccc(CC(=O)O)cn1)c1cc(Cl)cc(C2CC2)c1 | > 99.5 µM | > 100 µM |
| CNC(=O)[C@H](Nc1cc(CN)cc(-c2nn[nH]n2)c1)c1cc(Cl)cc(C2CC2)c1 | > 99.5 µM | > 100 µM |
| O=C(Nc1cc(Cl)cc(C(=O)Nc2ccnc(C(=O)O)c2)c1)OCc1ccccc1 | 66.9 µM | > 100 µM |
| O=C(Nc1cc(Cl)cc(C(=O)N2CC[C@H](C(=O)O)C2)c1)OCc1ccccc1 | > 99.5 µM | > 100 µM |
